± gives the expanded uncertainty stated by the source.
Conditions: for viscosity / mass density: 101.33 kPa, Liquid; for viscosity: Concentric cylinders viscometry; for mass density: Vibrating tube method; for Glass transition temperature: DSC; for Normal melting temperature: Crystal, DTA

For `CCCCC(CC)CCC(=O)[O-].CCCCCCCC[N+](C)(CCCCCCCC)CCCCCCCC` [methyltrioctylammonium 4-ethyloctanoate], which viscosity (293.15 K) is on record?
The viscosity was 5743.4 ± 800 mPa·s.

And the mass density (293.15 K)?
Its mass density is 893.1 ± 18 kg/m3.

And the viscosity (298.15 K)?
Its viscosity is 3733.4 ± 510 mPa·s.

And the mass density (298.15 K)?
The mass density was 890.1 ± 18 kg/m3.

And the viscosity (303.15 K)?
The viscosity was 2468.1 ± 330 mPa·s.

What about the mass density (303.15 K) of the same molecule?
The mass density was 887.1 ± 18 kg/m3.

What about the viscosity (308.15 K) of the same molecule?
The viscosity was 1672.3 ± 220 mPa·s.

And the mass density (308.15 K)?
Its mass density is 884 ± 18 kg/m3.

And the viscosity (313.15 K)?
Its viscosity is 1159.3 ± 150 mPa·s.

And the mass density (313.15 K)?
Its mass density is 881 ± 18 kg/m3.

And the viscosity (318.15 K)?
Its viscosity is 820.4 ± 110 mPa·s.

And the mass density (318.15 K)?
The mass density was 877.9 ± 18 kg/m3.

And the viscosity (323.15 K)?
The viscosity was 592.1 ± 77 mPa·s.

And the mass density (323.15 K)?
Its mass density is 874.9 ± 17 kg/m3.

And the viscosity (328.15 K)?
The viscosity was 434.7 ± 56 mPa·s.

What about the mass density (328.15 K) of the same molecule?
Its mass density is 871.8 ± 17 kg/m3.

What about the viscosity (333.15 K) of the same molecule?
Its viscosity is 324.9 ± 42 mPa·s.

And the mass density (333.15 K)?
Its mass density is 868.8 ± 17 kg/m3.

What about the viscosity (338.15 K) of the same molecule?
The viscosity was 246.3 ± 32 mPa·s.

And the mass density (338.15 K)?
The mass density was 865.8 ± 17 kg/m3.

And the viscosity (343.15 K)?
Its viscosity is 189.2 ± 24 mPa·s.

And the mass density (343.15 K)?
Its mass density is 862.8 ± 17 kg/m3.

And the viscosity (348.15 K)?
Its viscosity is 147.4 ± 19 mPa·s.

What about the mass density (348.15 K) of the same molecule?
Its mass density is 859.8 ± 17 kg/m3.

What about the viscosity (353.15 K) of the same molecule?
The viscosity was 116.1 ± 15 mPa·s.

What about the mass density (353.15 K) of the same molecule?
Its mass density is 856.8 ± 17 kg/m3.

What about the viscosity (358.15 K) of the same molecule?
Its viscosity is 92.4 ± 12 mPa·s.

What about the mass density (358.15 K) of the same molecule?
The mass density was 853.9 ± 17 kg/m3.

What about the viscosity (363.15 K) of the same molecule?
Its viscosity is 74.1 ± 9.4 mPa·s.

And the mass density (363.15 K)?
Its mass density is 850.9 ± 17 kg/m3.

What about the Glass transition temperature of the same molecule?
Its Glass transition temperature is -76.6 ± 1 °C.

With `CCCCCCCC/C=C\CCCCCCCC(=O)[O-].CCCCCCCC[N+](C)(CCCCCCCC)CCCCCCCC` [methyltrioctylammonium oleate] as the molecule, how does the viscosity (293.15 K) read?
Its viscosity is 2934 ± 240 mPa·s.

What about the mass density (293.15 K) of the same molecule?
The mass density was 890.5 ± 7.6 kg/m3.

And the viscosity (298.15 K)?
The viscosity was 1971.4 ± 150 mPa·s.

And the mass density (298.15 K)?
Its mass density is 887.5 ± 7.5 kg/m3.

And the viscosity (303.15 K)?
The viscosity was 1354.6 ± 100 mPa·s.

What about the mass density (303.15 K) of the same molecule?
Its mass density is 884.5 ± 7.5 kg/m3.

What about the viscosity (308.15 K) of the same molecule?
Its viscosity is 957.7 ± 70 mPa·s.

What about the mass density (308.15 K) of the same molecule?
The mass density was 881.5 ± 7.5 kg/m3.

What about the viscosity (313.15 K) of the same molecule?
The viscosity was 692.7 ± 49 mPa·s.

And the mass density (313.15 K)?
Its mass density is 878.5 ± 7.4 kg/m3.

And the viscosity (318.15 K)?
The viscosity was 511.3 ± 36 mPa·s.

And the mass density (318.15 K)?
The mass density was 875.5 ± 7.4 kg/m3.

And the viscosity (323.15 K)?
The viscosity was 384.4 ± 26 mPa·s.

What about the mass density (323.15 K) of the same molecule?
The mass density was 872.5 ± 7.4 kg/m3.

And the viscosity (328.15 K)?
Its viscosity is 293.8 ± 20 mPa·s.

What about the mass density (328.15 K) of the same molecule?
The mass density was 869.5 ± 7.4 kg/m3.

What about the viscosity (333.15 K) of the same molecule?
The viscosity was 227.9 ± 15 mPa·s.

And the mass density (333.15 K)?
Its mass density is 866.6 ± 7.3 kg/m3.

And the viscosity (338.15 K)?
Its viscosity is 179.2 ± 12 mPa·s.

And the mass density (338.15 K)?
The mass density was 863.6 ± 7.3 kg/m3.

What about the viscosity (343.15 K) of the same molecule?
Its viscosity is 142.7 ± 9.2 mPa·s.

And the mass density (343.15 K)?
Its mass density is 860.7 ± 7.3 kg/m3.

What about the viscosity (348.15 K) of the same molecule?
Its viscosity is 114.3 ± 7.3 mPa·s.

What about the mass density (348.15 K) of the same molecule?
The mass density was 857.8 ± 7.3 kg/m3.

What about the viscosity (353.15 K) of the same molecule?
The viscosity was 92.3 ± 5.9 mPa·s.

And the mass density (353.15 K)?
The mass density was 854.9 ± 7.2 kg/m3.

And the viscosity (358.15 K)?
Its viscosity is 74.9 ± 4.8 mPa·s.

And the mass density (358.15 K)?
The mass density was 852 ± 7.2 kg/m3.

What about the viscosity (363.15 K) of the same molecule?
Its viscosity is 61.8 ± 3.9 mPa·s.

And the mass density (363.15 K)?
Its mass density is 849.1 ± 7.2 kg/m3.

And the Normal melting temperature?
Its Normal melting temperature is -5.9 ± 0.5 °C.

What about the Glass transition temperature of the same molecule?
Its Glass transition temperature is -56.3 ± 1.2 °C.

For `CCCCCCCC/C=C\CCCCCCCC(=O)[O-].CCCCCC[N+](CCCCCC)(CCCCCC)CCCCCC` [tetrahexylammonium oleate], which viscosity (293.15 K) is on record?
The viscosity was 2509.9 ± 200 mPa·s.

And the mass density (293.15 K)?
The mass density was 889.9 ± 5.5 kg/m3.

What about the viscosity (298.15 K) of the same molecule?
The viscosity was 1623.7 ± 120 mPa·s.

What about the mass density (298.15 K) of the same molecule?
The mass density was 886.9 ± 5.5 kg/m3.

And the viscosity (303.15 K)?
Its viscosity is 1086.6 ± 79 mPa·s.

What about the mass density (303.15 K) of the same molecule?
The mass density was 883.9 ± 5.5 kg/m3.

What about the viscosity (308.15 K) of the same molecule?
Its viscosity is 749 ± 53 mPa·s.

What about the mass density (308.15 K) of the same molecule?
Its mass density is 880.9 ± 5.5 kg/m3.

And the viscosity (313.15 K)?
The viscosity was 530.9 ± 36 mPa·s.

What about the mass density (313.15 K) of the same molecule?
The mass density was 877.8 ± 5.4 kg/m3.

And the viscosity (318.15 K)?
The viscosity was 384.9 ± 26 mPa·s.

And the mass density (318.15 K)?
The mass density was 874.8 ± 5.4 kg/m3.

And the viscosity (323.15 K)?
Its viscosity is 285.3 ± 19 mPa·s.

And the mass density (323.15 K)?
Its mass density is 871.8 ± 5.4 kg/m3.

What about the viscosity (328.15 K) of the same molecule?
Its viscosity is 215.5 ± 14 mPa·s.

And the mass density (328.15 K)?
The mass density was 868.8 ± 5.4 kg/m3.

And the viscosity (333.15 K)?
Its viscosity is 165.4 ± 10 mPa·s.

What about the mass density (333.15 K) of the same molecule?
Its mass density is 865.8 ± 5.4 kg/m3.

And the viscosity (338.15 K)?
The viscosity was 129.5 ± 8.2 mPa·s.

What about the mass density (338.15 K) of the same molecule?
Its mass density is 862.9 ± 5.3 kg/m3.

And the viscosity (343.15 K)?
Its viscosity is 102.9 ± 6.4 mPa·s.

And the mass density (343.15 K)?
The mass density was 859.9 ± 5.3 kg/m3.

And the viscosity (348.15 K)?
The viscosity was 82.8 ± 5.1 mPa·s.

What about the mass density (348.15 K) of the same molecule?
Its mass density is 857 ± 5.3 kg/m3.

And the viscosity (353.15 K)?
The viscosity was 67.5 ± 4.2 mPa·s.

And the mass density (353.15 K)?
The mass density was 854 ± 5.3 kg/m3.

What about the viscosity (358.15 K) of the same molecule?
Its viscosity is 55.5 ± 3.4 mPa·s.

What about the mass density (358.15 K) of the same molecule?
The mass density was 851 ± 5.3 kg/m3.

What about the viscosity (363.15 K) of the same molecule?
The viscosity was 45.5 ± 2.8 mPa·s.

What about the mass density (363.15 K) of the same molecule?
The mass density was 847.9 ± 5.3 kg/m3.

What about the Glass transition temperature of the same molecule?
Its Glass transition temperature is -83.2 ± 0.8 °C.

With `CCCCCCCC/C=C\CCCCCCCC(=O)[O-].CCCCCCCC[N+](CCCCCCCC)(CCCCCCCC)CCCCCCCC` [tetraoctylammonium oleate] as the molecule, how does the viscosity (293.15 K) read?
Its viscosity is 1689.3 ± 130 mPa·s.

What about the mass density (293.15 K) of the same molecule?
The mass density was 878.4 ± 7.4 kg/m3.

What about the viscosity (298.15 K) of the same molecule?
Its viscosity is 1153.4 ± 86 mPa·s.

And the mass density (298.15 K)?
The mass density was 875.3 ± 7.4 kg/m3.

And the viscosity (303.15 K)?
Its viscosity is 804.8 ± 58 mPa·s.

And the mass density (303.15 K)?
The mass density was 872.3 ± 7.4 kg/m3.

What about the viscosity (308.15 K) of the same molecule?
The viscosity was 575.4 ± 40 mPa·s.

What about the mass density (308.15 K) of the same molecule?
Its mass density is 869.2 ± 7.4 kg/m3.

What about the viscosity (313.15 K) of the same molecule?
Its viscosity is 420.8 ± 29 mPa·s.

What about the mass density (313.15 K) of the same molecule?
The mass density was 866.1 ± 7.3 kg/m3.

And the viscosity (318.15 K)?
Its viscosity is 314.4 ± 21 mPa·s.

What about the mass density (318.15 K) of the same molecule?
The mass density was 863.1 ± 7.3 kg/m3.

What about the viscosity (323.15 K) of the same molecule?
Its viscosity is 239.4 ± 16 mPa·s.

And the mass density (323.15 K)?
Its mass density is 860.1 ± 7.3 kg/m3.

And the viscosity (328.15 K)?
The viscosity was 185.4 ± 12 mPa·s.

What about the mass density (328.15 K) of the same molecule?
Its mass density is 857.1 ± 7.2 kg/m3.

What about the viscosity (333.15 K) of the same molecule?
Its viscosity is 146.2 ± 9.5 mPa·s.

What about the mass density (333.15 K) of the same molecule?
Its mass density is 854.1 ± 7.2 kg/m3.

What about the viscosity (338.15 K) of the same molecule?
The viscosity was 117 ± 7.5 mPa·s.

What about the mass density (338.15 K) of the same molecule?
Its mass density is 851.1 ± 7.2 kg/m3.

What about the viscosity (343.15 K) of the same molecule?
Its viscosity is 94.9 ± 6.1 mPa·s.

And the mass density (343.15 K)?
Its mass density is 848.2 ± 7.2 kg/m3.

And the viscosity (348.15 K)?
Its viscosity is 77.9 ± 4.9 mPa·s.

And the mass density (348.15 K)?
Its mass density is 845.2 ± 7.1 kg/m3.

What about the viscosity (353.15 K) of the same molecule?
The viscosity was 64.1 ± 4.1 mPa·s.

What about the mass density (353.15 K) of the same molecule?
Its mass density is 842.2 ± 7.1 kg/m3.

And the viscosity (358.15 K)?
Its viscosity is 53.5 ± 3.4 mPa·s.

And the mass density (358.15 K)?
Its mass density is 839.2 ± 7.1 kg/m3.

And the viscosity (363.15 K)?
Its viscosity is 44.3 ± 2.8 mPa·s.

What about the mass density (363.15 K) of the same molecule?
Its mass density is 836.1 ± 7.1 kg/m3.

What about the Normal melting temperature of the same molecule?
The Normal melting temperature was -29.5 ± 0.7 °C.

And the Glass transition temperature?
The Glass transition temperature was -79.8 ± 1.5 °C.
